Assays:
Format in all cases: cell-based, human
[1] = tested on: adipose-derived stem cells (ASCs); assay: Oil-O-Red staining of fat vacuoles in adipose-derived stem cells (Example 6); conditions: for adipogenic differentiation / development of fat vacuoles (Oil-O-Red staining): 3 weeks of incubation in NM; for formation of fat vacuoles / adipogenic differentiation (Oil-O-Red staining): PPARγ 2.7, 1, 0.5 or 0.1 μg/ml
Experimental: The induction of adipogenic differentiation by recombinant PPARγ was verified by Oil-O-Red staining of fat vacuoles. Human adipose-derived stem cells (ASCs) from 4 different donors were isolated as described in example 3. The cells were cultured for 2 weeks in “NM”, a standard culture medium of Dulbecco's modified Eagle's medium with a physiologic glucose concentration of 100 mg/dl (DMEM, Sigma, Germany) supplemented with 10% fetal calf serum (FCS; PAA, Germany) and medium was changed every 5-6 days. Cells were cultured in NM containing 2.7 μg/ml, 1 μg/ml, 0.5 μg/ml, or 0.1 μg/ml of PPARγ (Thermo Scientific-Pierce, PPARgamma human), respectively, or 5 μM Pioglitazone (Sigma-Aldrich, Germany), or 5 μM Pioglitazone and 2.7 μg/ml PPARγ, or 5 μM Pioglitazone and 0.1 μg/ml PPARγ. Controls were cultured in NM.
After 2 weeks in culture the formation of lipid droplets which is indicative of the ability to differentiate was verified by Oil-O-Red staining. Oil-O-Red is a fat-soluble dye used for the staining of neutral triglycerides. […] After fixation with 4% paraformaldehyde for 20 minutes, the cells were incubated for a staining time of 1 hour with a 0.5% Oil-O-Red (Sigma) solution in Isopropanol/glycerine. The Oil-O-Red staining was evaluated microscopically.
Further cells were cultured in NM containing 5 μM Pioglitazone (Sigma-Aldrich, Germany), or 5 μM Pioglitazone and 2.7 μg/ml PPARγ, or 5 μM Pioglitazone and 0.1 μg/ml PPARγ.
Further cell samples were cultured in “AM-” composed of DMEM with 4500 mg/l glucose, 10 μM insulin (Novo Nordisk), 1 μM dexamethasone (Ratiopharm), 10% FCS. Cell samples were cultured in AM- containing 2.7 μg/ml, 1 μg/ml, 0.5 μg/ml, or 0.1 μg/ml of PPARγ, respectively, or 5 μM Pioglitazone, or 5 μM Pioglitazone and 2.7 μg/ml PPARγ. Negative control cells were cultured in AM-. Cells incubated with DMEM with 4500mg/l glucose, 10 μM insulin (Novo Nordisk), 1 μM dexamethasone (Ratiopharm), 10% FCS and 1 mM isobutyl-methylxanthin (Sigma) and 200 μM indometacin (Fluka) were used as a positive induction control.
Culturing of cells in NM and in AM- containing the different PPARγ concentrations as given above was repeated with an incubation period of 3 weeks.

[2] = tested on: adipose-derived stem cells; assay: Cell proliferation of adipose-derived stem cells, MTT photometric assay (Example 4); conditions: 6 days, FIG. 1
Experimental: Cell proliferation was determined by a photometric assay using MTT (3-(4,5-dimethylthiazol-2-yl)-2,5-diphenyltetrazolium bromide). In brief, human adipose-derived stem cells were isolated from 5 different donors according to example 3 and 1.5×10^4 cells were seeded in 96-well-plates. Cell samples were used in quadruplicate in each experiment. The human adipose-derived stem cells were cultured for 6 days in two different media containing PPARγ or control media. Recombinant PPARγ (recPPARγ) (Thermo Scientific-Pierce, PPARgamma human) was solved in dimethyl sulfoxide (DMSO) at a concentration of 270 µg/ml and used as a stock solution. Working solutions were prepared by dilution using a factor of 1:100 for a final concentration of 2.7 μg/ml, a factor of 1:270 for a final concentration of 1 μg/ml, a factor of 1:540 for a final concentration of 0.5 μg/ml, and a factor of 1:2700 for a final concentration of 0.1 μg/ml. […]
After 6 days of culturing, the cells were incubated in PBS containing MTT at 37° C. for 4 hours. Afterwards, the medium was removed, 0.04 N HCl was added, and absorbance was measured in a microplate reader at 550 nm versus 650 nm. […]

[3] = tested on: adipose-derived stem cells; assay: Photometric measurement (optical density) of adipogenic differentiation in adipose-derived stem cells (Example 5); conditions: 2 weeks of culturing, FIG. 2
Experimental: The induction of adipogenic differentiation by recombinant PPARγ was tested in human adipose-derived stem cells from 4 different donors isolated as described in example 3. The cells were cultured for 2 weeks, and media were changed every 5-6 days. Cell samples were seeded with 1.5×10^4 cells in 96-well-plates. Recombinant PPARγ (recPPARγ) (Thermo Scientific-Pierce, PPARgamma human) was solved in dimethyl sulfoxide (DMSO) at a concentration of 270 µg/ml and used as a stock solution. Working solutions were prepared by dilution using a factor of 1:100 for a final concentration of 2.7 μg/ml, a factor of 1:270 for a final concentration of 1 μg/ml, a factor of 1:540 for a final concentration of 0.5 μg/ml, and a factor of 1:2700 for a final concentration of 0.1 μg/ml.
Cells were cultured in two different media, either in “NM”, a standard culture medium of Dulbecco's modified Eagle's medium with a physiologic glucose concentration of 100 mg/dl (DMEM, Sigma, Germany) supplemented with 10% fetal calf serum (FCS; PAA, Germany), or in “AM-” composed of DMEM with 4500 mg/l glucose (high glucose) and 10 μM insulin (Novo Nordisk), 1 μM dexamethasone (Ratiopharm), and 10% FCS. Cell samples were cultured in NM containing 2.7 μg/ml, 1 μg/ml, 0.5 μg/ml, or 0.1 μg/ml of PPARγ, respectively. […] After 2 weeks of culturing, the optical density was measured in a microplate reader. […]

[4] = tested on: adipose-derived stem cells (ASC); assay: Induction of adipocyte differentiation by PPARgamma, oil red O staining (Example 2); conditions: PPARgamma 0.0001%, 0.01% and 1% by weight in culture media; 5 days incubation, further 9 days in culture; oil red O staining of lipid droplets
Experimental: The ability of peroxisome proliferator-activated receptor-gamma to induce differentiation of adipocytes was studied in adipose-derived stem cells (ASC). Human adipose-derived stem cells were obtained by liposuction and cultured following a published procedure (Crandall et al, Endocrinology 140:154-8, 1999). In brief, adipose tissue was digested with 2 mg/mL collagenase in Krebs-Ringer-bicarbonate buffer (pH 7.4). The preadipocyte fraction was resuspended in growth medium, transferred to a culture flask, and maintained in an incubator at 37° C., and 5% CO2. Cell attachment was allowed for 16-20 h and afterwards the cells that had not adhered were removed.
Peroxisome proliferator-activated receptor-gamma (PPARgamma) was added to respective final concentrations of 0.0001%, 0.01% and 1% by weight to the culture media 24 hours after the cells were seeded. The media was changed every three days and supplemented with fresh peroxisome proliferator-activated receptor-gamma. The cells were incubated with peroxisome proliferator-activated receptor-gamma for 5 days. Afterwards peroxisome proliferator-activated receptor-gamma was removed, and the cells were kept for further 9 days in culture for observation of lipid droplet formation, which is indicative of the ability to differentiate. Controls were run in medium without peroxisome proliferator-activated receptor-gamma. […]

Question: With `CCc1ccc(CCOc2ccc(CC3SC(=O)NC3=O)cc2)nc1` (racemic) [Pioglitazone, (RS)-5-{p-[2-(5-ethyl-2-pyridyl)ethoxy]benzyl}-2,4-thiazolidinedione, reference compound] as the molecule, how does the “adipogenic differentiation / development of fat vacuoles (Oil-O-Red staining)” value [1] read?
Answer: The value was “only slightly induced differentiation”.

Question: And the “cell proliferation (MTT assay)” value ([2]; 5 μM Pioglitazone alone, NM standard medium)?
Answer: The value was “no effect”.

Question: Which “cytotoxic effect on cells (cell number by optical density)” value ([3]; 2.7-0.1 μg/ml PPARγ) does the source give for “PPARγ: Recombinant PPARγ protein (Thermo Scientific-Pierce, PPARgamma human); nuclear hormone receptor transcription factor” here?
Answer: The value was “no cytotoxic effect”.

Question: And the “differentiation and proliferation (increase in optical density)” value ([3]; both media (NM and AM-))?
Answer: Its value is “stimulated the differentiation and proliferation”.

Question: And the Degree of differentiation [4]?
Answer: Its Degree of differentiation is “++ to +++”.

Question: What about the “formation of fat vacuoles / adipogenic differentiation (Oil-O-Red staining)” value ([1]; 2 weeks of culture in AM- medium) of the same molecule?
Answer: The value was “able to induce the formation of fat vacuoles”.

Question: What about the “formation of fat vacuoles / adipogenic differentiation (Oil-O-Red staining)” value ([1]; 2 weeks of culture in NM, Pioglitazone 5 μM, FIG. 3) of the same molecule?
Answer: Its value is “able to induce the formation of fat vacuoles”.

Question: And the “formation of fat vacuoles and adipogenic differentiation (Oil-O-Red staining)” value ([1]; 3 weeks of culture in AM- medium)?
Answer: Its value is “induced the formation of fat vacuoles and adipogenic differentiation”.

Question: And the “adipogenic differentiation / development of fat vacuoles (Oil-O-Red staining)” value [1]?
Answer: Its value is “heavily induced adipogenic differentiation”.

Question: And the “cell proliferation (MTT assay)” value ([2]; 2.7, 1, 0.5 or 0.1 μg/ml PPARγ, both media (NM and AM-))?
Answer: Its value is “stimulated the proliferation of the adipose-derived stem cells in a dose-dependent manner”.
